We go through one compound from patent publication US20030148259A1, “Method of identifying insulin secretion stimulating compounds, and the use of such compounds in treating insulin-secretion related disorders” (priority 2002, published 2003).

Each structure is given as a SMILES string.

Test [1] has as its system β-cells. Description: Screening for CICR-active agents by periodic amplification of Ca2+ signals in single β-cells (fura-2 microfluorometry). The test is classed as cell-based, mouse.
Test [2] has as its system INS-1E cells. Briefly: Insulin release from INS-1E cells (insulin ELISA). The class given is cell-based, rat. The method, then: Glucose-responsive clonal insulinoma cells (INS-1E) were cultured in RPMI-1640 medium supplemented with FBS (5%, v/v), penicillin (50 i.u. /ml), streptomycin (50 μg/ml), 2-mercaptoethanol (50 μM), HEPES (10 mM) and sodium pyruvate (1 mM) (Maechler, P. et al., IUBMB.Life 50, 27-31(2000). Medium was changed every other day.
INS-1E cells (200,000/ well) were seeded in 24-well plates and cultured for 6-7 days before using them for insulin release assay. On the day of experiment, cells were incubated in RPMI without glucose for 2 hours. Cells attached to the wells were then washed three times with warm (37° C.) medium (KRBH) containing (in mM): NaCl 140, NaHCO3 2, KCl 3.6, NaH2PO4 0.5, MgSO4 0.5, HEPES 10, CaCl2, 1.5, BSA 0.1% and incubated for 30 minutes at 37°. Cells were then incubated with 500 μl of the test solutions, by adding solution to one well at a time, every 20 sec. After one hour of incubation, 200 μl of supernatant was transferred to Eppendorf tubes, again one well at a time, every 20 sec. The collected materials were then centrifuged and supernatants were used for insulin ELISA.
A general note: In an ELISA, binding on a coated surface is turned into a signal by an enzyme label.

Test [3] relates to mouse islets. Briefly: Insulin release from perifused islets (radio immunoassay). The class given is cell-based. As to conditions: 11.2 mM glucose. The protocol: Normal lean mice (BALB/c, Bomholtgard, Ry, Denmark) weighing 20-25 g were starved overnight and islets isolated by collagenase digestion and dextran purification method (Shi, C. L., Cell Transplant. 6, 33-37 (1997)). Islets were then cultured overnight in RPMI 1640 medium containing 10% FBS, 11.2 mM glucose, 60 i.u./ml penicillin and 60 μg/ml gentamicin, in a water-saturated atmosphere of air and 5% CO2.
Groups of 50 islets were transferred to a perifusion chamber housed in an infant incubator at 37° C. They were perifused at a rate of 1 ml/ min with Krebs-Ringer bicarbonate buffer supplemented with 20 mM HEPES, 0.1% BSA, glucose and drugs as required. The buffer was continuously gassed with 95% 02 and 5% CO2. The islets were perifused for 30 min with this medium containing 2 mM glucose, followed by a 40-min stimulation with 11.2 mM glucose alone (control), or 11.2 mM glucose plus drugs. During the last five minutes of perifusion with 2 mM glucose, three samples of effluent were collected to measure basal rate of insulin secretion. After switching to the 11.2 mM glucose the effluent was sampled every minute for the first five minutes and then at the intervals of 5 minutes. The average rate of insulin secretion (ng/min/50 islets) was calculated by integrating individual perifusion profile. Insulin was measured by radio immunoassay using crystalline mouse insulin as standard (Shi, C. L. cited above).

For test [4], the system named is INS-1E cells. Briefly: Measurement of cAMP content. The class given is cell-based, rat. As to conditions: caffeine 0.25-3 mM. The protocol:
INS-1E cells (20000 per well) were cultured for three days in 24 well plates. On the day of the experiments cells were washed and incubated for 30 min at 37° C. in the KRBH buffer containing 3 mM glucose. Cells were then washed again and solutions containing 11.2 mM glucose and test substances were added. After 10 min, incubations were terminated by removing the medium and precipitating cell protein in 80% ice-cold ethanol. Cells were then scraped and all contents of the wells were transferred to tubes. After centrifugation at 14,000 rpm for five min, the supernatants were collected and freeze-dried over-night. The cAMP content in each sample was determined with a radio ligand-binding assay using a bovine heart cAMP-binding protein as described by Pyne, N. J. and Tolan, D., Pyne, S. in Biochem.J 328 (Pt 2), 689-694 (1997).

Test [5] relates to INS-1E cells. Description: Confocal microscopy imaging of [Ca2+]i in fluo-3 loaded cells. The class given is cell-based, rat. To be noted: caffeine 5 mM, FIG. 10 upper panel. The method, then:
INS-1E cells were incubated in medium containing 5 mM glucose and 5 μM fluo-3 AM for 30 minutes followed by 10 min in medium without fluo-3Cover slips were mounted in a superfusion chamber, which was superfused with physiological solution at 3 ml/min. A three-way solenoid valve system allowed for rapid exchange of solutions. The dead space of the system (from valve inlet to chamber) was -0.5 ml. The flow was increased to 6 ml/min 15 s prior to switching from control solution to experimental solutions and reduced back to 3 ml/min after return to normal solution. [Ca^2+]1 were recorded with a BioRad laser scanning confocal system (BioRad MRC 1024) attached to a Nikon Diaphot 200 inverted microscope equipped with Nikon Plan Apo 60×1.4 NA oil immersion objective. Fluo-3 was excited at 488 nm (15 mW krypton-argon mixed gas laser, intensity attenuated to 3%) and the emitted light was collected through a 522 nm narrow band filter. Images were obtained with the iris closed to the minimum size that was compatible with good image quality. For each image, 3× Kalman averaging was used. Images were stored and converted to pseudo-color images using Scion Image software (Scion Corporation, Maryland).
Ratios were calculated using the initial fluorescence F0, and the observed fluorescence F using the equation R=F/F0, and these ratios were subsequently converted into [Ca^2+]i using the equation: [Ca^2+]i=RxKD/((KD/resting [Ca^2+]i)−R). […] Resting [Ca^2+]i in these cells under the conditions of experiment was 35 nM. All experiments were carried out at room temperature (25° C.).

Regarding `Cn1c(=O)c2c(ncn2C)n(C)c1=O` [caffeine], in test [1], the “periodic amplified Ca2+ release in β-cells (summary of screening)” value is reported as “elicit periodic amplified Ca^2+ release”. Further, in test [1] (Example 6, FIG. 3: 10 mM glucose), the “periodic amplification of Ca2+ signals (CICR)” value is listed as “gave rise to periodic amplifications of Ca^2+ signals”. Besides, in test [2] (FIG. 9B), the “concentration giving maximal stimulation of secretion” value was 0.25 to 0.75 mM. In addition, the insulin secretion result in test [2] (caffeine 0.25 mM, FIG. 9B) is “near-maximal stimulation of insulin secretion”; in test [2] (caffeine 0.75 mM, KATP channel bypassed by diazoxide and KCl, FIG. 8B), “Stimulation of insulin secretion by caffeine (0.75 mM) was observed”; in test [2] (caffeine 2.5 mM, 3 mM glucose, 1 hr, FIG. 8A), “did not alter insulin secretion”; in test [2] (methylxanthine 2.5 mM, 11.2 mM glucose, 1 hr, FIG. 8A/8C), “stimulated secretion”. Also, the insulin secretion rate turned out to be 328±22 ng/10^6 cell/hr in test [2] (caffeine 0.75 mM, without ryanodine) and 5.06±1.17 ng/min/50 islets in test [3] (40-min stimulation). For the same compound, the “stimulation of insulin secretion from islets” value in test [3] (2.5 mM caffeine, 6 μM MBED, FIG. 6) was “persistently stimulated both the first- and second-phases of insulin secretion”. Also, in test [4], the “effect on cAMP content” value is given as “did not increase cAMP content”. In test [5], the “change in [Ca2+]i” value is “transient increase on [Ca^2+]i”.
